How the values were obtained:
Type in all cases: binding
[1] = target: T1, H3K4 peptide (unmethylated) (Homo sapiens, UniProt P68431); assay: fluorescence indicator displacement assay, solution-phase affinity for H3K4 peptide; details: for Kd: 10 mM phosphate buffer at pH 7.4, average of triplicate determinations, indicator displacement assay, read-out: Solution-phase equilibrium dissociation constant (Kd), H3K4; for binding to unmethylated controls (in words): solution phase, relative to methylated peptides
T1 construct: H3 1-7=H2N-ARTKQTAY-COOH; made in house; host or cells: chemical solid-phase peptide synthesis
Method: (§1) In this example, the activity of various compound embodiments described herein were evaluated. A calixarene parent compound and compounds 502 and 404 were evaluated. Compound 502 was used has an upper-rim aryl group attached via sulfonamide linkage, and also includes a distal carboxy group for conjugation to solid-phase supports. The solution-phase affinities of a calixarene parent compound, and compounds 502 and 404 were determined for various methyllysine and methylarginine containing peptides by fluorescence indicator displacement assay (Table 1).
(§2) All values were determined in 10 mM phosphate buffer at pH 7.4 and are averages of triplicate determinations by an indicator displacement assay.

[2] = target: T2, H3R2me2s peptide (Homo sapiens, UniProt P68431); assay: fluorescence indicator displacement assay, solution-phase affinity for H3R2me2s peptide; details: 10 mM phosphate buffer at pH 7.4, average of triplicate determinations, read-out: Solution-phase equilibrium dissociation constant (Kd), H3R2me2s
T2 construct: H3 1-7=H2N-ARTKQTAY-COOH; made in house; host or cells: chemical solid-phase peptide synthesis
Method: as §1, §2

[3] = target: T3, H3R2me2a peptide (Homo sapiens, UniProt P68431); assay: fluorescence indicator displacement assay, solution-phase affinity for H3R2me2a peptide; details: for Kd: 10 mM phosphate buffer at pH 7.4, average of triplicate determinations, read-out: Solution-phase equilibrium dissociation constant (Kd), H3R2me2a
T3 construct: H3 1-7=H2N-ARTKQTAY-COOH; made in house; host or cells: chemical solid-phase peptide synthesis
Method: as §1, §2

[4] = target: T4, H3K4me2 peptide (Homo sapiens, UniProt P68431); assay: fluorescence indicator displacement assay, solution-phase affinity for H3K4me2 peptide; details: for Kd: 10 mM phosphate buffer at pH 7.4, average of triplicate determinations, read-out: Solution-phase equilibrium dissociation constant (Kd), H3K4me2; for affinity for Kme2-containing peptides (in words): solution phase
T4 construct: H3 1-7=H2N-ARTKQTAY-COOH; made in house; host or cells: chemical solid-phase peptide synthesis
Method: as §1, §2

[5] = target: T5, H3K9me3 peptide (Homo sapiens, UniProt P68431); assay: fluorescence indicator displacement assay, solution-phase affinity for H3K9me3 peptide; details: 10 mM phosphate buffer at pH 7.4, average of triplicate determinations, read-out: Solution-phase equilibrium dissociation constant (Kd), H3K9me3
T5 construct: H3 1-12=H2N-ARTKQTARKSTGY-COOH; made in house; host or cells: chemical solid-phase peptide synthesis
Method: as §1, §2

[6] = target: T6, H3K4me peptide (Homo sapiens, UniProt P68431); assay: fluorescence indicator displacement assay, solution-phase affinity for H3K4me peptide; details: 10 mM phosphate buffer at pH 7.4, average of triplicate determinations, read-out: Solution-phase equilibrium dissociation constant (Kd), H3K4me
T6 construct: H3 1-7=H2N-ARTKQTAY-COOH; made in house; host or cells: chemical solid-phase peptide synthesis
Method: as §1, §2

[7] = target: T7, H3K4me3 peptide; assay: fluorescence indicator displacement assay, solution-phase affinity for H3K4me3 peptide
T7 construct: other: solution phase, indicator displacement assay; fused on or other part: C-terminal Tyr added to read concentration by A280; trimethyl-lysine (a PTM)
Method: as §1, §2

[8] = target: T8, H3K4ac peptide (Homo sapiens, UniProt P68431); assay: fluorescence indicator displacement assay, solution-phase affinity for H3K4ac peptide; details: for Kd: 10 mM phosphate buffer at pH 7.4, average of triplicate determinations, indicator displacement assay, read-out: Solution-phase equilibrium dissociation constant (Kd), H3K4ac; for binding to Kac containing peptides (in words): solution phase, relative to methylated peptides
T8 construct: H3 1-7=H2N-ARTKQTAY-COOH; made in house; host or cells: chemical solid-phase peptide synthesis
Method: as §1, §2

| Kd [1] | binding to unmethylated controls (in words) [1] | Kd [2] | Kd [3] | Kd [4] | affinity for Kme2-containing peptides (in words) [4] | Kd [5] | Kd [6] | affinity for Kme3-containing peptides (in words) [7] | Kd [8] | binding to Kac containing peptides (in words) [8] | affinity for aDMA-containing peptides (in words) ([3]; solution phase) | SMILES |
| --- | --- | --- | --- | --- | --- | --- | --- | --- | --- | --- | --- | --- |
| 85.5 µM | weaker binding | 6.62 µM | 1 µM | 0.1 µM | sub-micromolar | 1 µM | 2.3 µM | sub-micromolar | > 1000 µM | weaker binding |  | O=C(O)Cc1ccc(-c2cc3c(O)c(c2)Cc2cc(S(=O)(=O)O)cc(c2O)Cc2cc(S(=O)(=O)O)cc(c2O)Cc2cc(S(=O)(=O)O)cc(c2O)C3)cc1 [Compound 404, 5-(4-carboxymethylphenyl)-25, 26, 27, 28-tetrahydroxy-11-17-23-trisulfonatocalix[4]arene] |
| 3.8 µM | weaker binding | 2.6 µM | 0.6 µM | 0.4 µM | sub-micromolar | 0.5 µM | 1.3 µM | sub-micromolar | 7.6 µM | weaker binding | sub-micromolar | O=C(O)c1ccc(S(=O)(=O)Nc2cc3c(O)c(c2)Cc2cc(S(=O)(=O)O)cc(c2O)Cc2cc(S(=O)(=O)O)cc(c2O)Cc2cc(S(=O)(=O)O)cc(c2O)C3)cc1 [Compound 502, 5-(4-carboxyphenyl)sulfonamido-25, 26, 27, 28-tetrahydroxy-11-17-23-trisulfonatocalix[4]arene] |

From US10338037B2, “Compounds and conjugates for identifying and separating post-translationally modified analytes” (UVic Industry Partnerships Inc., priority 2015, dated 2019)
